Patent US20140018288A1, “X-DING-CD4 Peptide” (priority 2012, published 2014)

What was measured:
[1] = tested on: cellular uptake of X-DING-CD4 protein; experiment: Cellular uptake of X-DING-CD4 protein tested by RSA in 1G5 cells treated with uptake inhibitors; assay type: cell-based
Experimental: Cellular uptake of X-DING-CD4 protein was tested by RSA in 1G5 cells treated with chemicals affecting: (i) clatrin mediated endocytosis—[…] (CPZ); (ii) endocytosis—cytochalasin D (CCD) and chloroquine (CQ) or (iii) macropinocytosis—dimethyl amiloride (DMA). Untreated group referred to the experimental system where X-DING-CD4 mediated inhibition of transcription was measured without cellular exposure to chemicals.

HIV-1 LTR promoter = experiment: Rapid Suppression Assay (RSA), PMA-induced HIV-1 LTR-driven luciferase in 1G5 cells; assay type: cell-based; settings: RSA; for IC50: 1G5 cells, PMA 5 ng/ml, read-out: IC50, HIV-1 LTR promoter inhibition; for IC50, HIV-1 LTR promoter inhibition, mass concentration: Table 1
Source text: We applied the cell based Rapid Suppression Assay (RSA) for testing X-DING-CD4-induced inhibition of HIV-1 LTR promoter (Lesner et al., 2004; Lesner et al., 2005). Briefly, 1 G5 cells (obtained through the NIH AIDS Research and Reagent Program, Division of AIDS, NIAID, NIH) that are stably transfected with an inducible luciferase gene driven by HIV-1 LTR (Aguilar-Cordova et al., 1994) were washed in PBS, resuspended in hybridoma medium to concentration of 5×10^6cells/ml. For purpose of generating control titration curves, 100 μl aliquots of 1G5 cells were mixed with 100 μl cell culture medium either supplemented with various amount of rX-DING-CD4^pep (SEQ ID No: 1) or no rX-DING-CD4^pep, and incubated for three hours at 37° C. Subsequently, all cells were induced with phorbol 12-myristate 13-acetate (PMA) at a concentration of 5 ng/ml. Two control tubes containing 1G5 cells without rX-DING-CD4^pep treatment were resuspended in hybridoma medium with or without PMA. Three hours later cells were collected by centrifugation and lysed in the same tubes using Reporter Lysis buffer (Promega). The expression levels of luciferase protein in the lysates were determined according to the manufacturer's protocol. The X-DING-CD4^pep inhibition values were established based on the formula: [(LUC1-LUC0)×100/Z]−100; where LUC1 is the value obtained from cells induced by PMA and treated with a specific dilution of X-DING-CD4^pep; and LUC0 is the basal value obtained from the uninduced and untreated cells; Z is the absolute luciferase induction by PMA calculated as Z=LUCmax-LUCO3 where LUCmax is the value of 100% luciferase expression in PMA induced X-DING-CD4^pep untreated cells.
One aspect of the present invention is related to X-DING-CD4 peptide derivatives. Here we obtained 15 derivatives SED ID NOS: 1-15 by recombination or in vitro synthesis. We tested the biological activity of some these derivatives by rapid suppression assay (RSA). In XD-4M, the third amino acid glycine in the native X-DING-CD4 peptide was substituted with the polar amino acid glutamine. In XD-7, the two amino acids, cysteine and valine, replaced the three amino acids, glycine, serine and aspartic acid, in the native X-DING-CD4 peptide. In XD-12 and XD-12sh, the 69th amino acid glutamic acid in the native X-DING-CD4 peptide was methylated. In XD-9, the 69th amino acid glutamic acid in the native X-DING-CD4 peptide was substituted with the amino acid glutamine. The RSA procedure was similar to that described in Example 2. The inhibitory values are plotted in FIG. 5.
We performed the rapid suppression assay (RSA) which tests directly the inhibition of HIV-1 transcription (similar to the procedure described in Example 2), the MAGI assay which tests the inhibition of HIV-1 replication in a single cycle infection (similar to the procedure described in Example 2), and the HIV-1 infection inhibition assay in human PBLs.

| Molecule | effect of uptake inhibitor on sX-DING-CD4 inhibition of LTR transcription [1] | IC50 (HIV-1 LTR promoter) | IC50, HIV-1 LTR promoter inhibition, mass concentration (HIV-1 LTR promoter) |
| --- | --- | --- | --- |
| CN(C)CCCN1c2ccccc2Sc2ccc(Cl)cc21 [CPZ, Chromopromazine] | still demonstrated inhibitory effects of sX-DING-CD4 on LTR transcription |  |  |
| DINGGQTLPQK [XD-4M] |  | 57 nM | (66.9 ng/ml) |
| CCN(CC)CCCC(C)Nc1ccnc2cc(Cl)ccc12 (stereo not shown) [CQ, chloroquine] | still demonstrated inhibitory effects of sX-DING-CD4 on LTR transcription |  |  |
| CN(C)c1nc(N)c(C(=O)N=C(N)N)nc1Cl [DMA, dimethyl amiloride] | abolished the inhibitory effect of sX-DING-CD4 on LTR transcription |  |  |
| GVSNKNVHWAGSDSKLTAT [XD-14] |  | 36.8 nM | (72.5 ng/ml) |
| GVSNKNVHWAGSDSKLTATE(OMe)LSTY [XD-12] |  | 33.7 nM | (86.2 ng/ml) |
| KNVHWAGSDSKLTSTELSTY [XD-4] |  | 31 nM | (70 ng/ml) |
| LLSTY [XD-15sh] |  | 157 nM | (93.5 ng/ml) |
| GTKNVHWAGSDSKLTSTELSTYC [XD-5] |  | 35.8 nM | (88.7 ng/ml) |
| C=C1[C@@H](C)[C@H]2[C@H](Cc3ccccc3)NC(=O)[C@]23[C@H](OC(C)=O)/C=C/[C@@](C)(O)C(=O)[C@@H](C)C/C=C/[C@H]3[C@@H]1O [CCD, cytochalasin D] | still demonstrated inhibitory effects of sX-DING-CD4 on LTR transcription |  |  |
| DINGGGATLPQK [XD-1] |  | 51.2 nM | (60 ng/ml) |
| QLSTY [XD-13sh] |  | 121 nM | (74 ng/ml) |
| YTSLE [XD-12sh, YTSLE(OMe)] |  | 121 nM | (74 ng/ml) |
| GVSNKNVHWAGSDSKLTATQLSTY [XD-13] |  | 30.2 nM | (77.5 ng/ml) |
| GVSNKNVHWAGSDSKLTATLLSTY [XD-15] |  | 36.7 nM | (93.5 ng/ml) |
| GTKNVHWACVSKLTSTELSTY [XD-7] |  | 29.8 nM | (69.3 ng/ml) |
